Assay results reported in patent US20060166900A1, “Salt of morphine-6-glucuronide” (CeNeS Limited, priority 2002, published 2006).

What was measured:
Format in all cases: physicochemical
[1] = Stability of M6G salts at room temperature over 6 years, HPLC; settings: for Assay M6G corr.: content calculated as M6G derivative
[2] = Colour of solution by visible spectrophotometry on storage (Example 3); settings: 5% w/v solution in water
Procedure: Colour of solution by UV spectrophotometry.
(§1) Each test material was stored between 2-8*C prior to placing on stability. Each material was sub-divided into 900 mg aliquots, transferred to brown opaque HDPE plastic bottles and flushed with Argon prior to sealing. Sufficient samples were provided for each time point as well as spares for each storage condition. The samples were placed in appropriate incubators previously commissioned at storage conditions 25° C./60% RH, 40° C./75% RH and 60° C.
Colour by Visible Spectrophotometry
A 5% w/v solution of test material was prepared in water and the absorbance measured at 420 nm in a 1 cm silica cell using a Unicam UV4 Visible/UV spectrophotometer.

[3] = Visual appearance on storage (Example 3)
Procedure: as §1
The samples were stored for analysis according to the following table: […]

[4] = Stability indicating HPLC assay and related substances on storage (Example 3)
Procedure: Assay (% w/w) and related substances determination
as §1
Testing Procedures Test for Identity Content and Impurities
Testing was performed in duplicate (2×25 mg) in accordance with a stability indicating HPLC assay method. The assay results were reported as M6G as is, M6G as the anhydrous, solvent free material and the anhydrous solvent free material corrected for the salt form using the relevant conversion factor.

[5] = Water content by Karl Fisher analysis on storage (Example 3)
Procedure: Water content (% w/w) by Karl Fisher analysis
as §1
Water Content by Karl Fisher Analysis
Water content was determined in duplicate on an aliquot of equilibrated material (approximately 100 mg) using a Tritrino 720 KFS Titrator.

[6] = almost 6 years at room temperature

Question: For `CN1CCC23c4c5ccc(O)c4OC2C(OC2OC(C(=O)O)C(O)C(O)C2O)C=CC3C1C5.CN1CCC23c4c5ccc(O)c4OC2C(OC2OC(C(=O)O)C(O)C(O)C2O)C=CC3C1C5.O=S(=O)(O)O` (centres unmarked) [Morphine-6-glucuronide sulphate], which HN-33177 ([1]; 0 years) is on record?
Answer: 0.2%

Question: What about the HN-75083 ([1]; 0 years) of the same compound?
Answer: <0.1%

Question: What about the “Unknown related substances (sum area %)” value ([1]; 0 years) of the same compound?
Answer: 0.2 area %

Question: What about the “Assay M6G corr.” value ([1]; 0 years) of the same compound?
Answer: 93.6%

Question: And the HN-33177 ([1]; 6 years at ambient temperature)?
Answer: 0.3%

Question: And the HN-67002 ([1]; 6 years at ambient temperature)?
Answer: 1.1%

Question: And the HN-67003 ([1]; 6 years at ambient temperature)?
Answer: 1.8%

Question: What about the Morphine ([1]; 6 years at ambient temperature) of the same compound?
Answer: 0.2%

Question: And the “Unknown related substances (sum area %)” value ([1]; 6 years at ambient temperature)?
Answer: 10.7 area %

Question: What about the “Assay M6G corr.” value ([1]; 6 years at ambient temperature) of the same compound?
Answer: 76.8%

Question: What about the HN-33177 ([1]; 6 years at ambient temperature, listed as M6G2.H2SO4) of the same compound?
Answer: did not change

Question: What about the largest unidentified peak [1, 6] of the same compound?
Answer: 6.55 area %

Question: And the “peaks present in the chromatogram that cannot be identified by retention time” value [1, 6]?
Answer: 13

Question: And the Colour ([2]; 1 month, 25° C./60% RH)?
Answer: 0.244 Abs@420 nm

Question: And the Colour ([2]; 1 month, 40° C./75% RH)?
Answer: 0.430 Abs@420 nm

Question: And the Colour ([2]; 1 month, 60° C.)?
Answer: 1.714 Abs@420 nm

Question: What about the Colour ([2]; 3 months, 25° C./60% RH) of the same compound?
Answer: 0.406 Abs@420 nm

Question: And the Colour ([2]; 3 months, 40° C./75% RH)?
Answer: 1.056 Abs@420 nm

Question: What about the Colour ([2]; Initial) of the same compound?
Answer: 0.136 Abs@420 nm

Question: What about the Appearance ([3]; 1 month, 25° C./60% RH) of the same compound?
Answer: White crystalline powder

Question: What about the Appearance ([3]; 1 month, 40° C./75% RH) of the same compound?
Answer: Slightly yellow crystalline powder

Question: What about the Appearance ([3]; 1 month, 60° C.) of the same compound?
Answer: Pale yellow crystalline powder

Question: And the Appearance ([3]; 3 months, 25° C./60% RH)?
Answer: Pale yellow crystalline powder

Question: And the Appearance ([3]; 3 months, 40° C./75% RH)?
Answer: Slightly yellow crystalline powder

Question: What about the Appearance ([3]; Initial) of the same compound?
Answer: White crystalline powder

Question: What about the “Known Related Substances HN33177” value ([4]; 1 month, 25° C./60% RH) of the same compound?
Answer: 0.63%

Question: What about the “Known Related Substances HN67003” value ([4]; 1 month, 25° C./60% RH) of the same compound?
Answer: 0.69%

Question: And the “Known Related Substances HN75083” value ([4]; 1 month, 25° C./60% RH)?
Answer: 0.27%

Question: And the “M6G Assay, Anhydrous basis” value ([4]; 1 month, 25° C./60% RH)?
Answer: 81.82 % w/w

Question: What about the “M6G Assay, As is basis” value ([4]; 1 month, 25° C./60% RH) of the same compound?
Answer: 73.58 % w/w

Question: And the “M6G Assay, Corrected for the salt form” value ([4]; 1 month, 25° C./60% RH)?
Answer: 90.51 % w/w

Question: What about the “Total Known” value ([4]; 1 month, 25° C./60% RH) of the same compound?
Answer: 1.59%

Question: What about the “Total Related Substances” value ([4]; 1 month, 25° C./60% RH) of the same compound?
Answer: 4.29%

Question: And the “Total Unknown” value ([4]; 1 month, 25° C./60% RH)?
Answer: 2.70%

Question: And the “Known Related Substances HN33177” value ([4]; 1 month, 40° C./75% RH)?
Answer: 0.50%

Question: What about the “Known Related Substances HN67003” value ([4]; 1 month, 40° C./75% RH) of the same compound?
Answer: 1.58%

Question: And the “Known Related Substances HN75076” value ([4]; 1 month, 40° C./75% RH)?
Answer: 0.06%

Question: What about the “Known Related Substances HN75083” value ([4]; 1 month, 40° C./75% RH) of the same compound?
Answer: 0.74%

Question: What about the “Known Related Substances Morphine” value ([4]; 1 month, 40° C./75% RH) of the same compound?
Answer: 0.21%

Question: And the “M6G Assay, Anhydrous basis” value ([4]; 1 month, 40° C./75% RH)?
Answer: 73.67 % w/w

Question: And the “M6G Assay, As is basis” value ([4]; 1 month, 40° C./75% RH)?
Answer: 65.04 % w/w

Question: And the “M6G Assay, Corrected for the salt form” value ([4]; 1 month, 40° C./75% RH)?
Answer: 81.50 % w/w

Question: What about the “Total Known” value ([4]; 1 month, 40° C./75% RH) of the same compound?
Answer: 3.09%

Question: What about the “Total Related Substances” value ([4]; 1 month, 40° C./75% RH) of the same compound?
Answer: 9.78%

Question: What about the “Total Unknown” value ([4]; 1 month, 40° C./75% RH) of the same compound?
Answer: 6.69%

Question: What about the “Known Related Substances HN33177” value ([4]; 1 month, 60° C.) of the same compound?
Answer: 0.23%

Question: And the “Known Related Substances HN67003” value ([4]; 1 month, 60° C.)?
Answer: 2.73%

Question: What about the “Known Related Substances HN75076” value ([4]; 1 month, 60° C.) of the same compound?
Answer: 0.26%

Question: And the “Known Related Substances HN75083” value ([4]; 1 month, 60° C.)?
Answer: 0.61%

Question: And the “Known Related Substances Morphine” value ([4]; 1 month, 60° C.)?
Answer: 0.72%

Question: What about the “M6G Assay, Anhydrous basis” value ([4]; 1 month, 60° C.) of the same compound?
Answer: 63.84 % w/w

Question: And the “M6G Assay, As is basis” value ([4]; 1 month, 60° C.)?
Answer: 57.15 % w/w

Question: And the “M6G Assay, Corrected for the salt form” value ([4]; 1 month, 60° C.)?
Answer: 70.62 % w/w

Question: And the “Total Known” value ([4]; 1 month, 60° C.)?
Answer: 4.55%

Question: What about the “Total Related Substances” value ([4]; 1 month, 60° C.) of the same compound?
Answer: 18.25%

Question: What about the “Total Unknown” value ([4]; 1 month, 60° C.) of the same compound?
Answer: 13.70%

Question: What about the “Known Related Substances HN33177” value ([4]; 3 months, 25° C./60% RH) of the same compound?
Answer: 0.52%

Question: And the “Known Related Substances HN67003” value ([4]; 3 months, 25° C./60% RH)?
Answer: 1.36%

Question: And the “Known Related Substances HN75083” value ([4]; 3 months, 25° C./60% RH)?
Answer: 0.53%

Question: And the “Known Related Substances Morphine” value ([4]; 3 months, 25° C./60% RH)?
Answer: 0.17%

Question: What about the “M6G Assay, Anhydrous basis” value ([4]; 3 months, 25° C./60% RH) of the same compound?
Answer: 77.05 % w/w

Question: What about the “M6G Assay, As is basis” value ([4]; 3 months, 25° C./60% RH) of the same compound?
Answer: 69.08 % w/w

Question: And the “M6G Assay, Corrected for the salt form” value ([4]; 3 months, 25° C./60% RH)?
Answer: 85.24 % w/w

Question: What about the “Total Known” value ([4]; 3 months, 25° C./60% RH) of the same compound?
Answer: 2.58%

Question: And the “Total Related Substances” value ([4]; 3 months, 25° C./60% RH)?
Answer: 9.16%

Question: What about the “Total Unknown” value ([4]; 3 months, 25° C./60% RH) of the same compound?
Answer: 6.58%

Question: And the “Known Related Substances HN33177” value ([4]; 3 months, 40° C./75% RH)?
Answer: 0.23%

Question: What about the “Known Related Substances HN67003” value ([4]; 3 months, 40° C./75% RH) of the same compound?
Answer: 1.72%

Question: And the “Known Related Substances HN75076” value ([4]; 3 months, 40° C./75% RH)?
Answer: 0.04%

Question: What about the “Known Related Substances HN75083” value ([4]; 3 months, 40° C./75% RH) of the same compound?
Answer: 0.58%

Question: What about the “Known Related Substances Morphine” value ([4]; 3 months, 40° C./75% RH) of the same compound?
Answer: 0.37%

Question: What about the “M6G Assay, Anhydrous basis” value ([4]; 3 months, 40° C./75% RH) of the same compound?
Answer: 68.38 % w/w

Question: What about the “M6G Assay, As is basis” value ([4]; 3 months, 40° C./75% RH) of the same compound?
Answer: 59.39 % w/w

Question: And the “M6G Assay, Corrected for the salt form” value ([4]; 3 months, 40° C./75% RH)?
Answer: 75.64 % w/w

Question: And the “Total Known” value ([4]; 3 months, 40° C./75% RH)?
Answer: 2.75%

Question: And the “Total Related Substances” value ([4]; 3 months, 40° C./75% RH)?
Answer: 17.98%

Question: What about the “Total Unknown” value ([4]; 3 months, 40° C./75% RH) of the same compound?
Answer: 15.23%

Question: What about the stability assessment ([4]; 25° C./60% RH, three months) of the same compound?
Answer: least stable

Question: What about the “Known Related Substances HN33177” value ([4]; Initial) of the same compound?
Answer: 0.69%

Question: What about the “Known Related Substances HN67003” value ([4]; Initial) of the same compound?
Answer: 0.15%

Question: And the “Known Related Substances HN75076” value ([4]; Initial)?
Answer: 0.01%

Question: And the “Known Related Substances HN75083” value ([4]; Initial)?
Answer: 0.23%

Question: What about the “M6G Assay, Anhydrous basis” value ([4]; Initial) of the same compound?
Answer: 88.49 % w/w

Question: What about the “M6G Assay, As is basis” value ([4]; Initial) of the same compound?
Answer: 80.62 % w/w

Question: And the “M6G Assay, Corrected for the salt form” value ([4]; Initial)?
Answer: 97.87 % w/w

Question: And the “Total Known” value ([4]; Initial)?
Answer: 1.08%

Question: And the “Total Related Substances” value ([4]; Initial)?
Answer: 1.72%

Question: And the “Total Unknown” value ([4]; Initial)?
Answer: 0.64%

Question: What about the overall stability comparison ([4]; overall review of Example 3 data) of the same compound?
Answer: least stable

Question: What about the Moisture ([5]; 1 month, 25° C./60% RH) of the same compound?
Answer: 4.28 % w/w

Question: And the Moisture ([5]; 1 month, 40° C./75% RH)?
Answer: 5.93 % w/w

Question: And the Moisture ([5]; 1 month, 60° C.)?
Answer: 4.68 % w/w

Question: And the Moisture ([5]; 3 months, 25° C./60% RH)?
Answer: 5.54 % w/w

Question: What about the Moisture ([5]; 3 months, 40° C./75% RH) of the same compound?
Answer: 8.31 % w/w

Question: And the Moisture ([5]; Initial)?
Answer: 3.77 % w/w
